≈ marks a conversion by molar mass, not a printed value.
Tests used:
K562 = assay: Cytotoxicity against human K562 cells assessed as cell growth inhibition at 30 uM by MTT assay relative to control; assay type: functional; conditions: read-out: GI
MDA-MB-231 = assay: Cytotoxicity against human MDA-MB-231 cells assessed as cell growth inhibition at 30 uM by SRB assay relative to control; assay type: functional; conditions: read-out: GI
[1] = Cytotoxicity against human L02 cells assessed as cell growth inhibition at 30 uM by SRB assay relative to control; assay type: cell-based; conditions: read-out: GI
ASPC1 = assay: Cytotoxicity against human ASPC1 cells assessed as cell growth inhibition at 30 uM by SRB assay relative to control; assay type: functional; conditions: read-out: GI
Escherichia coli = assay: Antibacterial activity against Escherichia coli assessed as reduction in bacterial growth; assay type: functional; conditions: time 24 hrs
Mycolicibacterium phlei = assay: Antibacterial activity against Mycobacterium phlei assessed as reduction in bacterial growth; assay type: functional; conditions: time 24 hrs
Staphylococcus aureus [2] = assay: Antibacterial activity against methicillin-resistant Staphylococcus aureus assessed as reduction in bacterial growth; assay type: functional; conditions: time 24 hrs
Bacillus cereus = assay: Antibacterial activity against Bacillus cereus assessed as reduction in bacterial growth; assay type: functional; conditions: time 24 hrs
Bacillus subtilis = assay: Antibacterial activity against Bacillus subtilis assessed as reduction in bacterial growth; assay type: functional; conditions: time 24 hrs
Vibrio parahaemolyticus = assay: Antibacterial activity against Vibrio parahaemolyticus assessed as reduction in bacterial growth; assay type: functional; conditions: time 24 hrs
Proteus sp. = assay: Antibacterial activity against Proteus sp. assessed as reduction in bacterial growth; assay type: functional; conditions: Proteus sp. (in: enterobacteria); time 24 hrs
Staphylococcus aureus [3] = assay: Potency index, ratio of ciprofloxacin MIC to test compound MIC for methicillin-resistant Staphylococcus aureus; assay type: functional

Row | Compound | inhibition of growth at 30 µM (K562) | inhibition of growth at 30 µM (MDA-MB-231) | inhibition at 30 µM [1] | inhibition of growth at 30 µM (ASPC1) | MIC (Escherichia coli) | MIC (Mycolicibacterium phlei) | MIC (Staphylococcus aureus [2]) | MIC (Bacillus cereus) | MIC (Bacillus subtilis) | MIC (Vibrio parahaemolyticus) | MIC (Proteus sp.) | Ratio (Staphylococcus aureus [3])
1 | COC1=C(c2ccc(OC)cc2)C(=O)C(SC)=C(c2ccc(OC)cc2)C1=O | < 50% | < 50% | < 50% | < 50% | – | – | – | – | – | – | – | –
2 | COC(=O)CSC1=C(c2ccc(OC)cc2)C(=O)C(OC)=C(c2ccc(OC)cc2)C1=O | < 50% | < 50% | < 50% | < 50% | – | – | – | – | – | – | – | –
3 | COC1=C(c2ccc(OC)cc2)C(=O)C(N)=C(c2ccc(OC)cc2)C1=O | < 50% | < 50% | < 50% | < 50% | – | – | – | – | – | – | – | –
4 | COc1ccc(-c2c(OC)c(O)c(-c3ccc(OC)cc3)c3sc(-c4nccs4)nc23)cc1 | < 50% | < 50% | < 50% | < 50% | 3.1 µM (≈ 1.48 µg/mL) | 6.2 µM (≈ 2.95 µg/mL) | > 50 µM | 1.5 µM (≈ 0.715 µg/mL) | 3.1 µM (≈ 1.48 µg/mL) | 6.2 µM (≈ 2.95 µg/mL) | 3.1 µM (≈ 1.48 µg/mL) | –
5 | COC(=O)CCSC1=C(c2ccc(OC)cc2)C(=O)C(OC)=C(c2ccc(OC)cc2)C1=O | < 50% | < 50% | < 50% | < 50% | > 50 µM | > 50 µM | 6.2 µM (≈ 2.9 µg/mL) | > 50 µM | 12 µM (≈ 5.62 µg/mL) | > 50 µM | 12 µM (≈ 5.62 µg/mL) | 8
6 | O=C(O)c1cn(C2CC2)c2cc(N3CCNCC3)c(F)cc2c1=O [CIPROFLOXACIN] | – | – | – | – | 0.78 µM (≈ 0.258 µg/mL) | 0.78 µM (≈ 0.258 µg/mL) | 50 µM (≈ 16.6 µg/mL) | 1.5 µM (≈ 0.497 µg/mL) | 0.39 µM (≈ 0.129 µg/mL) | 0.39 µM (≈ 0.129 µg/mL) | 1.5 µM (≈ 0.497 µg/mL) | –

Reference: ChEMBL document CHEMBL4837184, “Antibacterial p-Terphenyl with a Rare 2,2'-Bithiazole Substructure and Related Compounds Isolated from the Marine-Derived Actinomycete Nocardiopsis sp. HDN154086” (J Nat Prod, 2021)
